In patent publication US9980976B2, “Use of REDD1 inhibitors to dissociate therapeutic and adverse atrophogenic effects of glucocorticoid receptor agonists” (Northwestern University, priority 2015, dated 2018):

Legend:
GR = conditions: Schäcke et al, 2009; cited from earlier work
human skin = assay: Skin atrophy in human volunteers treated with topical glucocorticoid; type: in vivo; conditions: 0.05% cream daily, 2-week treatment
Experimental: (§1) Glucocorticoid CBP was applied topically as a 0.05% cream to the skin of right arm of healthy human volunteers (age 32-65) once or every 24 h for 2 weeks. Untreated left arm skin was used as control. Whole human skin samples were used for the molecular biological studies.
Quantification of the epidermal width and number of basal keratinocytes (as the readouts for skin atrophy and hypoplasia of raft epidermis) was performed in dorsal skin and ORC sections stained with H&E. The number of dermal cells was determined on sections stained with Masson's trichrome in the upper (papillary) dermis that is distinguishable from the lower (reticular) dermis (Driskell et al, 2013). At least 10 individual fields per slide with at least three samples in each experimental group were counted using Axioplan2 microscope software (Carl Zeiss). All measurements are presented as % to corresponding control.

REDD1 [1] = assay: REDD1 mRNA expression in human skin (RT-PCR); type: in vivo; conditions: human skin treated with CBP 0.05% cream for 24 h-2 weeks
Experimental: as §1
Total RNA from murine epidermis, whole human skin, and cell cultures was isolated with RiboPure kit (Ambion, Life Technologies, Grand Island, N.Y., USA). Total RNA from murine s.c. adipose was isolated with RNeasy Lipid Tissue Kit (Qiagen, Valencia, Calif., USA). The RNA samples were treated with TURBOT™ DNase (Ambion). The gene expression was assessed using semi-quantitative two-step RT-PCR and quantitative Q-PCR. Reverse transcription was performed using 1 μg RNA, random hexamers, and M-MLV reverse transcriptase (Invitrogen, Life Technologies), according to manufacturer instructions. The gene-specific primers were designed with NCBI Primer-BLAST (data not shown, see Baida et al., EMBO, 2015, at Supplementary Table S4). Q-PCR with SYBR Green detection was performed on the Applied Biosystems® 7000 Real-Time PCR instrument (Life Technologies). […] For semi-quantitative PCRs, Taq DNA polymerase (Promega) was used, and PCR products were separated on 1.5% agarose gel and visualized using automated imaging system (Bio-Rad, Hercules, Calif., USA). […]

[2] = system: organotypic raft cultures of primary human epidermal keratinocytes (NHEK); assay: Hypoplasia/proliferation in 3-D organotypic raft cultures (ORC) of NHEK; type: cell-based; conditions: pGIPZ-infected ORCs, 7-day treatment with CBP 5 μM
Experimental: (§2) Three-dimensional (3-D) organotypic raft cultures (ORC) of human epidermis were made as described in Getsios et al (2009). Briefly, neonatal human epidermal keratinocytes (NHEK) were infected with shRNA- and pGIPZ-expressing lentiviruses followed, 48 h later, by selection for puromycin (2 μg/ml) resistance. Selected keratinocyte cultures were reseeded onto collagen gels with embedded J2-3T3 fibroblasts and cultured at the air-liquid interface as previously described for 3 days to allow the initial phase of epidermis formation. The standard ORC medium contains high 5×10^−7 M hydrocortisone. […]
Quantification of the epidermal width and number of basal keratinocytes (as the readouts for skin atrophy and hypoplasia of raft epidermis) was performed in dorsal skin and ORC sections stained with H&E. The number of dermal cells was determined on sections stained with Masson's trichrome in the upper (papillary) dermis that is distinguishable from the lower (reticular) dermis (Driskell et al, 2013). At least 10 individual fields per slide with at least three samples in each experimental group were counted using Axioplan2 microscope software (Carl Zeiss). […]
The numbers of BrdU+, p63+, and total number of basal keratinocytes were evaluated in 10 fields of view in each skin/ORC sample under the microscope. […]

REDD1 [3] = assay: REDD1 expression in organotypic raft cultures (Q-PCR, Western blot); type: cell-based, human; conditions: control pGIPZ ORCs, short-term (6 h) and chronic (7 days) CBP
Experimental: as §2, with “hydrocortisone. In our experiments, ORC were cultured in the medium with 10^−8 M hydrocortisone during first 3 days and then were treated with glucocorticoid CBP (5×10^−6 M) or vehicle control (0.05% DMSO) for 7 days. Rafts were treated with BrdU (10^−7 M) 1 h before harvesting and fixed in formalin.” for “hydrocortisone.”
Total RNA from murine epidermis, whole human skin, and cell cultures was isolated with RiboPure kit (Ambion, Life Technologies, Grand Island, N.Y., USA). […] The gene expression was assessed using semi-quantitative two-step RT-PCR and quantitative Q-PCR. […] For semi-quantitative PCRs, Taq DNA polymerase (Promega) was used, and PCR products were separated on 1.5% agarose gel and visualized using automated imaging system (Bio-Rad, Hercules, Calif., USA). […]

| SMILES | anti-inflammatory effect (GR) | skin atrophy (GR) | negative effect on basal keratinocytes (compared with FA-treated mice) (human skin) | REDD1 mRNA (REDD1 [1]) | decrease in number and proliferation (BrdU incorporation) of basal keratinocytes [2] | REDD1 mRNA and protein (REDD1 [3]) |
| --- | --- | --- | --- | --- | --- | --- |
| Cc1ccc2c(NC[C@](O)(CC(C)(C)c3cc(F)cc4c3OCC4)C(F)(F)F)cccc2n1 [ZK245186/mapracorat] | preserve the anti-inflammatory effect of glucocorticoids | do not induce skin atrophy | – | – | – | – |
| CCC(=O)O[C@]1(C(=O)CCl)[C@@H](C)C[C@H]2[C@@H]3CCC4=CC(=O)C=C[C@]4(C)[C@@]3(F)[C@@H](O)C[C@@]21C [CBP, clobetasol propionate] | – | – | less pronounced | strongly up-regulated | 25-40% | induced REDD1 mRNA and protein |
